Measured values as given in patent publication US8030359B2, “Polymer formulations of CETP inhibitors” (Merck Sharp & Dohme Corp., priority 2006, dated 2011).
Read-outs that look alike come from different tables or passages of the source.

Columns and labels:
[1] = some patients who were taking torcetrapib; cited from earlier work
[2] = Phase III clinical trials, long-term outcomes study, group taking the drug compared with the control group; cited from earlier work
[3] = Pharmacokinetics (bioavailability) of formulations dosed to fasted Rhesus monkeys; type: in vivo; conditions: rhesus monkey, blood, 3 fasted Rhesus monkeys
Procedure: Examples of preparations of pharmaceutical formulations are provided below. Bioavailability is determined in vivo by dosing trial formulations and/or other formulations of the active pharmaceutical ingredient (API) to Rhesus monkeys (normally three monkeys per trial) at a dose of 1 mg/kg of the API and then measuring the amount of API in the serum or blood as a function of time. Comparisons are made with other formulations containing the same amount and same concentration of the API, such as a solid formulation with conventional excipients or a liquid filled gelatin capsule containing equal parts by weight of Tween 80 and Cremophor EL and varying amounts of the API. The API is any compound of Formula I to Ij, and most often is Compound H.
A formulation as described above comprised of 8.8% (w/w) Compound II, 35.2% HPMCAS-LF, 25.75% lactose monohydrate, 25.75% microcrystalline cellulose (Avicel PH 102), 3% croscarmellose sodium, 0.5% colloidal silicon dioxide, and 1% magnesium stearate was transferred to capsules (568 mg fill weight), with each capsule containing […] of Compound H. The pharmacokinetic profile of this composition was tested in a panel of 3 fasted Rhesus monkeys with a single dose of 1 mg/kg.
For comparison, a formulation containing Compound II without the polymer was made and tested, as follows. The non-polymer formulation contained 5% of Compound II, 5% SDS surfactant, 1.5% HPC-EXF, 1% croscarmellose sodium, and 87.5% lactose, and was prepared by wet granulation and used in a dry-filled capsule. The pharmacokinetic profile of this composition was measured by administering a single 1 mg/kg dose to a panel of 3 fasted Rhesus monkeys and then measuring the amount of Compound II in the blood of the monkeys for a period of at least 24 hours. […] The pharmacokinetics are not as good for the “conventional” formulation as for the polymer formulations, even though the “conventional” formulation used as a control included a surfactant.
The last 3 rows summarize pharmacokinetic data obtained by administering a single dose of the formulation at a dose of 1 mg/kg to panels of 3 fasted Rhesus monkeys and measuring the concentration of Compound II in the blood for a period of at least 24 hours. The compositions can be varied more broadly to obtain desired properties, as summarized after the table.

[4] = po, 1 mg/kg, HME tablet formulation with 8% Compound II, 28% copovidone, 4% Vitamin E TPGS, single dose 1 mg/kg
[5] = po, 1 mg/kg, HME tablet formulation with 10% Compound II, 35% copovidone, 5% Vitamin E TPGS, single dose 1 mg/kg
[6] = po, 1 mg/kg, HME tablet formulation with 12% Compound II, 42% copovidone, 6% Vitamin E TPGS, single dose 1 mg/kg
[7] = po, 1 mg/kg, spray dried polymer formulation in capsules (8.8% Compound II, 35.2% HPMCAS-LF), single dose 1 mg/kg, 24 hours
[8] = oral, non-polymer "conventional" control formulation (5% Compound II, 5% SDS, 1.5% HPC-EXF, 1% croscarmellose sodium, 87.5% lactose), wet granulation, dry-filled capsule, single 1 mg/kg dose

Row | Cmax [3, 4] [nM] | Tmax [3, 4] [h] | AUC(0-t) ([3]; po, 1 mg/kg, HME tablet formulation with 8% Compound II, 28% copovidone, 4% Vitamin E TPGS, single dose 1 mg/kg, read-out: AUC (0-24 hrs)) [µM·h] | Cmax [3, 5] [nM] | Tmax [3, 5] [h] | AUC(0-t) ([3]; po, 1 mg/kg, HME tablet formulation with 10% Compound II, 35% copovidone, 5% Vitamin E TPGS, single dose 1 mg/kg, read-out: AUC (0-24 hrs)) [µM·h] | Cmax [3, 6] [nM] | Tmax [3, 6] [h] | AUC(0-t) ([3]; po, 1 mg/kg, HME tablet formulation with 12% Compound II, 42% copovidone, 6% Vitamin E TPGS, single dose 1 mg/kg, read-out: AUC (0-24 hrs)) [µM·h] | Cmax [3, 7] [nM] | Tmax [3, 7] [h] | AUC(0-t) ([3]; po, 1 mg/kg, spray dried polymer formulation in capsules (8.8% Compound II, 35.2% HPMCAS-LF), single dose 1 mg/kg, 24 hours, read-out: AUC0-24) [µM·h] | Cmax [3, 8] [nM] | Tmax [3, 8] [h] | Compound | effect on blood pressure [1] | mortality versus control group [2]
1 |  |  |  |  |  |  |  |  |  |  |  |  |  |  | CCOC(=O)N1c2ccc(C(F)(F)F)cc2[C@@H](N(Cc2cc(C(F)(F)F)cc(C(F)(F)F)c2)C(=O)OC)C[C@H]1CC [torcetrapib] | increase blood pressure | increase in mortality
2 | 100 ± 10 | 4 ± 2 | 1.73 ± 0.28 | 100 ± 10 | 5.3 ± 2 | 1.62 ± 0.27 | 130 ± 10 | 6.7 ± 1.2 | 2.29 ± 0.21 | 120 ± 80 | 6.7 ± 2.3 | 1.99 ± 1.1 | 40 ± 30 | 18.7 ± 9.2 | COc1cc(F)c(C(C)C)cc1-c1ccc(C(F)(F)F)cc1CN1C(=O)O[C@H](c2cc(C(F)(F)F)cc(C(F)(F)F)c2)[C@@H]1C [Compound II, (4S,5R)-5-[3,5-bis(trifluoromethyl)phenyl]-3-{[4′-fluoro-5′-isopropyl-2′-methoxy-4-(trifluoromethyl)biphenyl-2-yl]methyl}-4-methyl-1,3-oxazolidin-2-one] |  | 
